Results from US6964975B2, “Isoxazole and thiazole compounds and use thereof as medicine” (Kirin Beer Kabushiki Kaisha, priority 2000, dated 2005).

Assays:
Human EDG-2/HepG2 cells = assay: Inhibitory activity on LPA-accelerated [3H] thymidine incorporation (cell proliferation); format: cell-based; conditions: 50% inhibition of LPA-induced increase of [3H] thymidine incorporation
Description: The human EDG-2 expression plasmid was introduced into HepG2 cells by electroporation. After the introduction, culturing was continued while exchanging selective media every 3 to 4 days, thereby obtaining an expressed colony. Regarding these cells, Ca-influx and cell-proliferation by LPA, level of [^3H] LPA binding and the like were inspected to select a cell line which highly expresses human EDG-2 (human EDG-2/HepG2).
Human EDG-2/HepG2 cells suspended in 10% bovine serum-containing DMEM (Dulbecco's modified eagle medium) were plated on a 96-well plate and, on the next day, the medium was exchanged with serum-free DMEM. 24 hours later, the medium was exchanged with DMEM containing LPA or DMEM containing no LPA, cells were cultured for further 16 hours, and [^3H] thymidine was then added. After culturing for 8 hours subsequent to the addition of [^3H] thymidine, cells were washed with PBS (phosphate-buffered saline), and the amount of [^3H] thymidine incorporated into the cells were assayed by Betaplate filter counter system (Amersham Pharmacia Biotech). The difference between the amount of [^3H] thymidine incorporated in the LPA-added well and the amount of [^3H] thymidine incorporated in the well containing no LPA represents the amount of [^3H] thymidine incorporation accelerated by LPA. […] The test compounds were added immediately before the LPA addition.

human EDG-2 = molecular target: T1, human EDG-2 (Homo sapiens, UniProt Q92633); assay: Inhibitory activity on LPA-induced elevation of intracellular Ca2+ level; format: cell-based; conditions: 50% inhibition of elevation of intracellular Ca2+ level by LPA, human EDG-2/HepG2 cells, fura-2
T1 construct: cDNA of the cloned human EDG-2 was introduced into pEFneo, which is an animal expression vector; expressed in transfected cells; host or cells: HepG2
Method in brief: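 Stably transfected HepG2 cells loaded with fura-2/AM (45 min, room temperature) in 0.1% BSA HEPES buffer. Test compound added before LPA, and the LPA-evoked intracellular Ca2+ rise measured fluorometrically. IC50 for inhibition derived.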

T1 sequence (Q92633 whole entry): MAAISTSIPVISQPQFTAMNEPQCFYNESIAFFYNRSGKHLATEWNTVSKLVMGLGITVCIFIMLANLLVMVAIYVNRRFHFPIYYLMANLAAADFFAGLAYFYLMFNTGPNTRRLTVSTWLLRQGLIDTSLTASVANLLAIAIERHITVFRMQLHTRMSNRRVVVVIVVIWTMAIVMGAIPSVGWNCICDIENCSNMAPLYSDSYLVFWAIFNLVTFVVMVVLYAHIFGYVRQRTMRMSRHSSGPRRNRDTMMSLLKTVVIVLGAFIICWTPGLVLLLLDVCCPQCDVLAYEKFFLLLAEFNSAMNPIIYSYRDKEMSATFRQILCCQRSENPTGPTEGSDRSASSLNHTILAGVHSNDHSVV

Structure (SMILES) | IC50 (Human EDG-2/HepG2 cells) [µM] | IC50 (human EDG-2) [µM]
Cc1noc(-c2ccc(CSc3nnnn3C)cc2)c1NC(=O)OC(C)c1ccccc1Cl (centres unmarked) [Compound 137, 1-(2-Chlorophenyl)ethyl N-[3-methyl-5-(4-{[(1-methyl-1H-1,2,3,4-tetrazol-5-yl)-sulfanyl]methyl}phenyl)-4-isoxazolyl]carbamate] | 0.1 to 0.3 | 3 to 10
CCOCc1cccc(-c2onc(C)c2NC(=O)OC(C)c2ccccc2Cl)c1 (centres unmarked) [Compound 129, 1-(2-Chlorophenyl)ethyl N-{5-[3-(ethoxymethyl)phenyl]-3-methyl-4-isoxazolyl}carbamate] | 0.3 to 1 | 3 to 10
Cc1noc(-c2ccc(CSCCS(=O)(=O)O)cc2)c1NC(=O)OC(C)c1ccccc1Cl (centres unmarked) [Compound 151, 2-({4-[4-({[1-(2-Chlorophenyl)ethoxy]carbonyl}amino)-3-methyl-5-isoxazolyl]benzyl}-sulfanyl)-1-ethanesulfonic acid] | 0.1 | 3 to 10
CCCSCc1ccc(-c2onc(C)c2NC(=O)OC(C)c2ccccc2Cl)cc1 (centres unmarked) [Compound 117, 1-(2-Chlorophenyl)ethyl N-(3-methyl-5-{4-[(propylsulfanyl)methyl]phenyl}-4-isoxazolyl)-carbamate] | 0.03 to 0.1 | 3 to 10
Cc1noc(-c2ccnc(Cl)c2)c1NC(=O)OC(C)c1ccccc1Cl (centres unmarked) [Compound 71, 1-(2-Chlorophenyl)ethyl N-[5-(2-chloro-4-pyridyl)-3-methyl-4-isoxazolyl]carbamate] | 1 | 3
COCc1cccc(-c2onc(C)c2NC(=O)OC(C)c2ccccc2Cl)c1 (centres unmarked) [Compound 128, 1-(2-Chlorophenyl)ethyl N-{5-[3-(methoxymethyl)phenyl]-3-methyl-4-isoxazolyl}carbamate] | 0.1 to 0.3 | 3 to 10
Cc1noc(-c2ccc(CSCC(=O)O)cc2)c1NC(=O)OC(C)c1ccccc1Cl (centres unmarked) [Compound 121, 2-({4-[4-({[1-(2-Chlorophenyl)ethoxy]carbonyl}amino)-3-methyl-5-isoxazolyl]benzyl}-sulfanyl)acetic acid] | 0.03 to 0.1 | 3 to 10
COC(=O)CCSCc1ccc(-c2onc(C)c2NC(=O)OC(C)c2ccccc2F)cc1 (centres unmarked) [Compound 156, Methyl 3-({4-[4-({[1-(2-fluorophenyl)ethoxy]carbonyl}amino)-3-methyl-5-isoxazolyl]-benzyl}-sulfanyl)propanoate] | 0.3 to 1 | 10
Cc1noc(-c2ccc(CSCCc3ccccc3)cc2)c1NC(=O)OC(C)c1ccccc1Cl (centres unmarked) [Compound 124] | 0.1 to 0.3 | 10 to 30
Cc1noc(-c2ccc(CNCCc3ccccn3)cc2)c1NC(=O)OC(C)c1ccccc1Cl (centres unmarked) [Compound 103] | 0.3 | 10
CCNCc1ccc(-c2onc(C)c2NC(=O)OC(C)c2ccccc2Cl)cc1 (centres unmarked) [Compound 116, 1-(2-Chlorophenyl)ethyl N-(5-{4-[(ethylamino)methyl]phenyl}-3-methyl-4-isoxazolyl)-carbamate] | 0.3 to 1 | 30 to 100
C=CCSCc1cccc(-c2onc(C)c2NC(=O)OC(C)c2ccccc2Cl)c1 (centres unmarked) [Compound 141, 1-(2-Chlorophenyl)ethyl N-(5-{3-[(allylsulfanyl)methyl]phenyl}-3-methyl-4-isoxazolyl)-carbamate] | 0.3 to 1 | 3 to 10
CCc1noc(-c2ccc(CCl)cc2)c1NC(=O)OC(c1ccccc1)C(F)(F)F (centres unmarked) [Compound 164, 2,2,2-Trifluoro-1-phenylethyl N-{5-[4-(chloromethyl)phenyl]-3-ethyl-4-isoxazolyl}carbamate] | 0.3 to 1 | 3 to 10
CCCCCNCc1ccc(-c2onc(C)c2NC(=O)OC(C)c2ccccc2Cl)cc1 (centres unmarked) [Compound 109, 1-(2-Chlorophenyl)ethyl N-(3-methyl-5-{4-[(pentylamino)methyl]phenyl}-4-isoxazolyl)carbamate] | 1 to 3 | 10 to 30
Cc1noc(-c2ccc(CSCc3ccco3)cc2)c1NC(=O)OC(C)c1ccccc1Cl (centres unmarked) [Compound 107, 1-(2-Chlorophenyl)ethyl N-[5-(4-{[(2-furylmethyl)sulfanyl]methyl}phenyl)-3-methyl-4-isoxazolyl]carbamate] | 0.03 to 0.1 | 3 to 10
Cc1noc(-c2ccc(CNCCc3cccnc3)cc2)c1NC(=O)OC(C)c1ccccc1Cl (centres unmarked) [Compound 110, 1-(2-Chlorophenyl)ethyl N-{3-methyl-5-[4-({[2-(3-pyridyl)ethyl]amino}methyl)-phenyl]-4-isoxazolyl}carbamate] | 0.3 to 1 | 10 to 30
Cc1noc(-c2ccc(CNCc3ccccn3)cc2)c1NC(=O)OC(C)c1ccccc1Cl (centres unmarked) [Compound 105, 1-(2-Chlorophenyl)ethyl N-[3-methyl-5-(4-{[(2-pyridylmethyl)amino]methyl}-phenyl)-4-isoxazolyl]carbamate] | 1 | 10 to 30
Cc1noc(-c2cccc(CSCCS(=O)(=O)O)c2)c1NC(=O)OC(C)c1ccccc1Cl (centres unmarked) [Compound 158, 2-({3-[4-({[1-(2-Chlorophenyl)ethoxy]carbonyl}amino)-3-methyl-5-isoxazolyl]benzyl}-sulfanyl)-1-ethanesulfonic acid] | 1 | 3 to 10
CCSCc1cccc(-c2onc(C)c2NC(=O)OC(C)c2ccccc2Cl)c1 (centres unmarked) [Compound 132, 1-(2-Chlorophenyl)ethyl N-(5-{3-[(ethylsulfanyl)methyl]phenyl}-3-methyl-4-isoxazolyl)carbamate] | 0.3 to 1 | 3
CCc1noc(-c2ccc(CSCCC(=O)OC)cc2)c1NC(=O)OC(C)c1ccccc1Cl (centres unmarked) [Compound 146] | 0.03 to 0.3 | 3 to 10
Cc1noc(-c2ccc(CSCCC(=O)O)cc2)c1NC(=O)OC(C)c1ccccc1Cl (centres unmarked) [Compound 126, 3-({4-[4-({[1-(2-Chlorophenyl)ethoxy]carbonyl}amino)-3-methyl-5-isoxazolyl]benzyl}-sulfanyl)propanoic acid] | 0.01 to 0.03 | 3 to 10
CCOC(=O)CSCc1cccc(-c2onc(C)c2NC(=O)OC(C)c2ccccc2Cl)c1 (centres unmarked) [Compound 140, Ethyl 2-({3-[4-({[1-(2-chlorophenyl)ethoxy]carbonyl}amino)-3-methyl-5-isoxazolyl]benzyl}-sulfanyl)acetate] | 0.3 to 1 | 3 to 10
Cc1noc(-c2ccc(CSCCNC(=O)c3ccc[nH]3)cc2)c1NC(=O)OC(C)c1ccccc1Cl (centres unmarked) [Compound 149, 1-(2-Chlorophenyl)ethyl N-(3-methyl-5-{4-[({2-[(1H-2-pyrrolylcarbonyl)amino]ethyl}-sulfanyl)methyl]phenyl}-4-isoxazolyl)carbamate] | 0.03 | 10 to 30
CCOC(=O)COCc1ccc(-c2onc(C)c2NC(=O)OC(c2ccccc2)C(F)(F)F)cc1 (centres unmarked) [Compound 169, Ethyl 2-{[4-(3-methyl-4-{[(2,2,2-trifluoro-1-phenylethoxy)carbonyl]amino}-5-isoxazolyl)-benzyl]oxy}acetate] | 1 to 3 | 3 to 10
COC(=O)C[S+]([O-])Cc1ccc(-c2onc(C)c2NC(=O)OC(C)c2ccccc2Cl)cc1 (centres unmarked) [Compound 134, Methyl 2-({4-[4-({[1-(2-chlorophenyl)ethoxy]carbonyl}amino)-3-methyl-5-isoxazolyl]-benzyl}sulfinyl)acetate] | 0.1 to 0.3 | 3 to 10
